ChEMBL document CHEMBL2074528, “Canalicular multispecific organic anion transporter/multidrug resistance protein 2 mediates low-affinity transport of reduced glutathione” (Biochem J, 1999)

B1: ATP-binding cassette sub-family C member 2 (Homo sapiens) (protein)
chain: MLEKFCNSTFWNSSFLDSPEADLPLCFEQTVLVWIPLGYLWLLAPWQLLHVYKSRTKRSSTTKLYLAKQVFVGFLLILAAIELALVLTEDSGQATVPAVRYTNPSLYLGTWLLVLLIQYSRQWCVQKNSWFLSLFWILSILCGTFQFQTLIRTLLQGDNSNLAYSCLFFISYGFQILILIFSAFSENNESSNNPSSIASFLSSITYSWYDSIILKGYKRPLTLEDVWEVDEEMKTKTLVSKFETHMKRELQKARRALQRRQEKSSQQNSGARLPGLNKNQSQSQDALVLEDVEKKKKKSGTKKDVPKSWLMKALFKTFYMVLLKSFLLKLVNDIFTFVSPQLLKLLISFASDRDTYLWIGYLCAILLFTAALIQSFCLQCYFQLCFKLGVKVRTAIMASVYKKALTLSNLARKEYTVGETVNLMSVDAQKLMDVTNFMHMLWSSVLQIVLSIFFLWRELGPSVLAGVGVMVLVIPINAILSTKSKTIQVKNMKNKDKRLKIMNEILSGIKILKYFAWEPSFRDQVQNLRKKELKNLLAFSQLQCVVIFVFQLTPVLVSVVTFSVYVLVDSNNILDAQKAFTSITLFNILRFPLSMLPMMISSMLQASVSTERLEKYLGGDDLDTSAIRHDCNFDKAMQFSEASFTWEHDSEATVRDVNLDIMAGQLVAVIGPVGSGKSSLISAMLGEMENVHGHITIKGTTAYVPQQSWIQNGTIKDNILFGTEFNEKRYQQVLEACALLPDLEMLPGGDLAEIGEKGINLSGGQKQRISLARATYQNLDIYLLDDPLSAVDAHVGKHIFNKVLGPNGLLKGKTRLLVTHSMHFLPQVDEIVVLGNGTIVEKGSYSALLAKKGEFAKNLKTFLRHTGPEEEATVHDGSEEEDDDYGLISSVEEIPEDAASITMRRENSFRRTLSRSSRSNGRHLKSLRNSLKTRNVNSLKEDEELVKGQKLIKKEFIETGKVKFSIYLEYLQAIGLFSIFFIILAFVMNSVAFIGSNLWLSAWTSDSKIFNSTDYPASQRDMRVGVYGALGLAQGIFVFIAHFWSAFGFVHASNILHKQLLNNILRAPMRFFDTTPTGRIVNRFAGDISTVDDTLPQSLRSWITCFLGIISTLVMICMATPVFTIIVIPLGIIYVSVQMFYVSTSRQLRRLDSVTRSPIYSHFSETVSGLPVIRAFEHQQRFLKHNEVRIDTNQKCVFSWITSNRWLAIRLELVGNLTVFFSALMMVIYRDTLSGDTVGFVLSNALNITQTLNWLVRMTSEIETNIVAVERITEYTKVENEAPWVTDKRPPPDWPSKGKIQFNNYQVRYRPELDLVLRGITCDIGSMEKIGVVGRTGAGKSSLTNCLFRILEAAGGQIIIDGVDIASIGLHDLREKLTIIPQDPILFSGSLRMNLDPFNNYSDEEIWKALELAHLKSFVASLQLGLSHEVTEAGGNLSIGQRQLLCLGRALLRKSKILVLDEATAAVDLETDNLIQTTIQNEFAHCTVITIAHRLHTIMDSDKVMVLDNGKIIECGSPEELLQIPGPFYFMAKEAGIENVNSTKF

Legend:
MRP2 (ABCC2) = MRP2 (ABCC2) (Homo sapiens, UniProt Q92887); assay: in vitro; conditions: dog, membrane vesicles from MRP2-expressing MDCK cells, probe DNP-SG
Description: TP_TRANSPORTER: inhibition of DNP-SG uptake (DNP-SG: 0.015 uM, GSH: 15 mM) in membrane vesicles from MRP2-expressing MDCK cells

[1] = substrate: N[C@@H](CCC(=O)N[C@H](CSc1ccc([N+](=O)[O-])cc1[N+](=O)[O-])C(=O)NCC(=O)O)C(=O)O; assay: TP_TRANSPORTER: uptake in membranes from MRP2-expressing MDCK cells; type: functional, cell membranes, MDCK-II, Membrane

Row | Molecule | activity at 15 mM (MRP2 (ABCC2)) [%] | Km [1] [µM]
1 | N[C@@H](CCC(=O)N[C@@H](CS)C(=O)NCC(=O)O)C(=O)O [GLUTATHIONE] | 51 | 
2 | B1 |  | 70
